Laboratory results reported in ChEMBL document CHEMBL5352481, “Discovery of small-molecule protein stabilizers toward exogenous alpha-l-iduronidase to reduce the accumulated heparan sulfate in mucopolysaccharidosis type I cells” (Eur J Med Chem, 2023).
Active and inactive are the calls of the source. No cut-off for these calls is given here.

Assays:
[1] = target: T1, Alpha-L-iduronidase (Homo sapiens) (UniProt P35475); test: Stabilization of human recombinant alpha-L-iduronidase in human GM01391 cells assessed as increase in IDUA activity at 100 uM incubated for 1 day followed by 1 day washout; type: cell-based
T1 sequence (whole entry): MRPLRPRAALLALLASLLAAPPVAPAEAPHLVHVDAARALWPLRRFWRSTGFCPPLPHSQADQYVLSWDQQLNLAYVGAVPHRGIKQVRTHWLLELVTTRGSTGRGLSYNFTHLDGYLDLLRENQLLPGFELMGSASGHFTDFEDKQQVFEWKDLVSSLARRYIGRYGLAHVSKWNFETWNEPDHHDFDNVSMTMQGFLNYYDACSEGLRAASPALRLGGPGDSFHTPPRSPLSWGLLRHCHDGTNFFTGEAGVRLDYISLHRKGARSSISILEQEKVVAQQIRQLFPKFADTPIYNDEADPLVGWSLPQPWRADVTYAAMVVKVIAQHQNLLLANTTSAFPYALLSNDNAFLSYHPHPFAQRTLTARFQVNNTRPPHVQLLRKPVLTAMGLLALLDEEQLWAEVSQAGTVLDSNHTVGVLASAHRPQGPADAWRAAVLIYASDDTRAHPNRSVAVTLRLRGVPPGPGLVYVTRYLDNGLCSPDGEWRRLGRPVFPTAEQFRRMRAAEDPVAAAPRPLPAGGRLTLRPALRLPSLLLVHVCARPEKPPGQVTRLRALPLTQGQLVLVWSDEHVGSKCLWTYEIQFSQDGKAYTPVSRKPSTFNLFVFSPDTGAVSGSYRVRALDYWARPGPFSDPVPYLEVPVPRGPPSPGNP

[2] = target: T1, Alpha-L-iduronidase (Homo sapiens); test: Inhibition of human recombinant alpha-L-iduronidase using 4-methylumbelliferyl-alpha-iduronide as fluorogenic substrate at 250 uM relative to control
[3] = target: T2, Alpha-L-iduronidase (Homo sapiens, UniProt P35475); test: Inhibition of human recombinant alpha-L-iduronidase using 4-methylumbelliferyl-alpha-iduronide as fluorogenic substrate
T2 sequence (P35475 whole entry): T1 sequence (whole entry)

[4] = target: T1, Alpha-L-iduronidase (Homo sapiens); test: Stabilization of human recombinant alpha-L-iduronidase in human GM01391 cells assessed as fold increase in IDUA activity at 100 uM incubated for 1 day followed by 1 day washout relative to control; type: cell-based
[5] = target: T2, Alpha-L-iduronidase; test: Inhibition of alpha-L-iduronidase (unknown origin) assessed as inhibition constant
[6] = target: T2, Alpha-L-iduronidase; test: Inhibition of human alpha-L-iduronidase using 4-methylumbelliferyl-alpha-L-iduronide as substrate assessed as inhibition constant
[7] = target: T2, Alpha-L-iduronidase; test: Inhibition of human seminal fluid alpha-L-iduronidase using 4-methylumbelliferyl-alpha-L-idosiduronic acid as substrate incubated for 1 hr by fluorescence based assay
[8] = target: T1, Alpha-L-iduronidase (Homo sapiens); test: Inhibition of human recombinant alpha-L-iduronidase using 4-methylumbelliferyl-alpha-L-iduronide as fluorogenic substrate at 0.1 mM relative to control
[9] = target: T1, Alpha-L-iduronidase (Homo sapiens); test: Stabilization of human recombinant alpha-L-iduronidase in human GM01391 cells assessed as fold increase in IDUA activity at 500 uM incubated for 1 day followed by 1 day washout relative to control; type: cell-based
[10] = target: T1, Alpha-L-iduronidase (Homo sapiens); test: Stabilization of human recombinant alpha-L-iduronidase in human GM01391 cells assessed as fold increase in IDUA activity at 500 uM measured after 9 days relative to control; type: cell-based; details: time 9.0 day
[11] = target: T1, Alpha-L-iduronidase (Homo sapiens); test: Stabilization of human recombinant alpha-L-iduronidase in human GM02846 cells assessed as reduction in heparan sulfate level at 10 to 500 uM incubated for 1 day followed by 1 day washout; type: cell-based; details: dose 10-500 µM
[12] = target: T2, Alpha-L-iduronidase; test: Inhibition of human recombinant alpha-L-iduronidase using 4-methylumbelliferyl-alpha-iduronide as fluorogenic substrate assessed as inhibition constant by Lineweaver-Burk plot analysis
[13] = target: T1, Alpha-L-iduronidase (Homo sapiens); test: Stabilization of human recombinant alpha-L-iduronidase in human GM02846 cells assessed as increase in IDUA activity incubated for 1 day followed by 1 day washout; type: cell-based; details: dose 10-500 µM
[14] = target: T1, Alpha-L-iduronidase (Homo sapiens); test: Stabilization of human recombinant alpha-L-iduronidase in human GM01391 cells assessed as reduction in heparan sulfate level at 500 uM incubated for 1 day followed by 1 day washout; type: cell-based

Row | SMILES | Activity [1] | inhibition [2] [%] | IC50 [3] [µM] | also measured
1 | NCC[C@@H]1N[C@@H](C(=O)O)[C@@H](O)[C@H](O)[C@H]1O | inactive | < 10 | – | –
2 | O=C(Cc1cccc(OP(=O)(O)O)c1)NCC[C@@H]1O[C@@H](C(=O)O)[C@@H](O)[C@H](O)[C@H]1O | – | – | 4 | fold change (FC) [4]: 1.6
3 | O=C(Cc1ccccc1OP(=O)(O)O)NCC[C@@H]1N[C@@H](C(=O)O)[C@@H](O)[C@H](O)[C@H]1O | inactive | 43 | – | –
4 | O=C(Cc1ccc(OP(=O)(O)O)cc1)NCC[C@@H]1N[C@@H](C(=O)O)[C@@H](O)[C@H](O)[C@H]1O | inactive | < 10 | – | –
5 | O=C(O)[C@]1(F)O[C@@H](F)[C@H](O)[C@@H](O)[C@@H]1O | – | – | – | Ki [5]: 1.2 µM
6 | O=C(Cc1cccc(OP(=O)(O)O)c1)NCC[C@@H]1N[C@@H](C(=O)O)[C@@H](O)[C@H](O)[C@H]1O | inactive | < 10 | – | –
7 | O=C(O)[C@H]1[C@@H](O)[C@H](O)[C@@H](O)c2nnnn21 | – | – | – | Ki [6]: 1300 µM
8 | O=C1O[C@H]([C@@H](O)C(=O)O)[C@H](O)[C@H]1O | – | – | – | IC50 [7]: 40 µM
9 | O=C(Cc1ccc(OP(=O)(O)O)cc1)NCC[C@@H]1O[C@@H](C(=O)O)[C@@H](O)[C@H](O)[C@H]1O | Active | – | 5.4 | –
10 | O=C(/C=C/c1ccccc1)NCc1cn([C@@H]2O[C@@H](C(=O)O)[C@@H](O)[C@H](O)[C@H]2O)nn1 | – | – | – | inhibition [8]: 74%
11 | NCC[C@@H]1O[C@@H](C(=O)O)[C@@H](O)[C@H](O)[C@H]1O | – | – | 6.7 | fold change (FC) [9]: 3; fold change (FC) [10]: > 1.6; Activity [11]: Active; Ki [12]: 4 µM; fold change (FC) [4]: 1.4; Activity [13]: Dose-Dependent Effect; Activity [14]: Active
12 | O=C1N[C@@H](C(=O)O)[C@@H](O)[C@H](O)[C@H]1O | – | – | – | Ki [6]: 94 µM
13 | O=C(Cc1ccccc1OP(=O)(O)O)NCC[C@@H]1O[C@@H](C(=O)O)[C@@H](O)[C@H](O)[C@H]1O | inactive | – | 1 | –
